Laboratory results as given in paper PMC11960431, “A novel function of short cationic peptide FP-CATH9 without antimicrobial activity reverses resistance to minocycline in common multidrug-resistant gram-negative bacteria” (Microbiology Spectrum, 2025).
Blank lines part the entries; values can stand above or below the molecule they belong to. Ends that are not written are not given here.

What was measured:
[1] = test system: Clinical K. pneumoniae 3 (minocycline resistance); test: Disk diffusion plate assay, inhibition zone (peptide alone and antibiotic sensitization); details: for Inhibition zone (mm) Contains FP-CATH9 / Inhibition zone (mm) Normal saline control: K. pneumoniae strain 3, mean ± SD, repeated three times; for Inhibition zone (mm) Contains FP-CATH9: antibiotic disk + FP-CATH9 (20 µg peptide in 10 µL); for Inhibition zone (mm) Normal saline control: antibiotic disk + normal saline, without FP-CATH9
E. coli ATCC BW25113 = test: MIC, broth microdilution (CLSI); assay type: cell-based, Escherichia coli; details: peptide alone, repeated three times
[2] = test system: Clinical A. baumannii 1 (minocycline sensitive); test: MIC, broth microdilution (CLSI); assay type: cell-based, Acinetobacter baumannii; details: peptide alone, repeated three times
[3] = test system: Clinical K. pneumoniae 3 (minocycline resistance); details: peptide alone, repeated three times
Method: (§1) The antimicrobial activity of FP-CATH9 was determined through broth microdilution and plate assays in an antibiotic disk diffusion test.
(§2) The MIC of FP-CATH9 was determined using broth microdilution as recommended by Clinical and Laboratory Standards Institute (CLSI). Sensitivity to other antibiotics was assessed using the VITEK 2 Compact System (bioMerieux, France). Antimicrobial activity was determined using the Clinical and Laboratory Standards Institute (CLSI) Standard Reference method([17]).

[4] = test system: Clinical P. aeruginosa 2 (minocycline resistance); details: peptide alone, repeated three times
Method: as §1, §2

[5] = test system: Clinical A. baumannii 3 (minocycline resistance); details: peptide alone, repeated three times
Method: as §1, §2

[6] = test system: Clinical P. aeruginosa 1 (minocycline resistance); details: peptide alone, repeated three times
Method: as §1, §2

[7] = test system: Clinical P. aeruginosa 3 (minocycline resistance); details: peptide alone, repeated three times
Method: as §1, §2

[8] = test system: Clinical K. pneumoniae 1 (minocycline sensitive); test: MIC, broth microdilution (CLSI); assay type: cell-based, Klebsiella pneumoniae; details: peptide alone, repeated three times
bovine erythrocytes = test: Hemolytic activity; assay type: cell-based; details: 5% bovine erythrocyte suspension, 128 µg/mL, 37°C, 1 h, absorbance 540 nm; 0.2% Triton X-100 positive control; mean ± SD
Method: Refer to the method of a reference ([21]). Determination of hemolytic activity. Fresh bovine blood cells (Guangzhou Hongquan Biotechnology Co., Ltd., No: HQ80074) were washed with normal saline three times and configured into 5% erythrocyte suspension. […] The supernatant was absorbed, and the absorption value was measured at a 540 nm wavelength. Normal saline was used as negative control, and 0.2% Triton X-100 was used as positive control. The percentage of hemolysis rate is calculated by the following formula: hemolysis rate % = A(sample) − A(negative control) / A(positive control) × 100%.

P. aeruginosa ATCC 27853 [9] = test: MIC, broth microdilution (CLSI); assay type: cell-based, Pseudomonas aeruginosa; details: peptide alone, repeated three times
S. aureus ATCC 29213 = test: MIC, broth microdilution (CLSI); assay type: cell-based; details: peptide alone, repeated three times
[10] = test system: K. pneumoniae ATCC 700603; assay type: cell-based, Klebsiella pneumoniae; details: peptide alone, repeated three times
A. baumannii ATCC 19606 = test: MIC, broth microdilution (CLSI); assay type: cell-based, Acinetobacter baumannii; details: peptide alone, repeated three times
[11] = test system: Clinical K. pneumoniae 2 (minocycline mediated); assay type: cell-based, Klebsiella pneumoniae; details: peptide alone, repeated three times
[12] = test system: Clinical A. baumannii 2 (minocycline mediated); assay type: cell-based, Acinetobacter baumannii; details: peptide alone, repeated three times
[13] = test system: Multidrug-resistant K. pneumoniae strain 3; test: Time-killing curve; assay type: cell-based, Klebsiella pneumoniae; details: K. pneumoniae strain 3, 10^6 CFU/mL, 37°C, each agent 16 µg/mL
Method: After 4 h of treatment with minocycline only (16 µg/mL), drug-resistant bacterial cultures were again observed to be growing rapidly.
Refer to the method of a reference ([19]). The above clinical K. pneumoniae strain 3 was taken in logarithmic stage (oscillatory culture at 37°C) and diluted with fresh MH liquid medium into 10^6 CFU/mL bacterial suspension. […] The bacterial solution added with the drug was placed in an incubator at 37°C for shock culture, and the 50 µL bacterial solution was diluted 1,000 times at 0, 2, 4, 6, 8, 10, and 12 h, respectively. Then, the 50 µL diluted bacteria solution was coated on MH solid medium, and the bacterial colonies were counted after overnight culture at 37°C. Saline was used as a negative control.

[14] = test system: Multidrug-resistant K. pneumoniae; test: Checkerboard assay, FP-CATH9 and minocycline; details: 18 h
[15] = test system: Clinical A. baumannii 3 (minocycline resistance); test: Disk diffusion plate assay, inhibition zone; assay type: cell-based, Acinetobacter baumannii; details: Multidrug-resistant A. baumannii strain 3; MH paper + 10 µL normal saline; Fig 3B
Method: as §1, §2
(§3) The concentration of the FP-CATH9 mother solution was 2 mg/mL. The control conditions included MH paper + normal saline (10 µL) , experimental conditions included MH paper + FP-CATH9 (10 µL). Total 10 µL was added to MH paper to detect the dose dependence of sensitization.

[16] = test system: minocycline-resistant K. pneumoniae strain 3; test: G. mellonella infection assay; assay type: in vivo, Galleria mellonella; details: G. mellonella larvae, n = 10, infected with K. pneumoniae strain 3; 16 µg/mL; 7 days
Method: The G. mellonella model of bacterial infection was used to evaluate the combined protective effect of FP-CATH9 and minocycline. In each G. mellonella group (n = 10), G. mellonella survival was recorded every 24 h after infection. […] After the infected group was injectioned with minocycline -resistant K. pneumoniae strain 3 , the larvae all died within 1 day.
Refer to the method of a reference ([22]). Monoclonal K. pneumoniae strain 3 was selected and cultivated in 5 mL LB broth using a constant temperature oscillator at 200 rpm/min and 37°C for 12 h. After 12 h, the culture was expanded and diluted at the ratio of 1:100. The logarithmic bacterial solution was taken, washed with normal saline, and then suspended in 1 mL system with a concentration of 1.5 × 10^8 CFU/mL. The experiment was divided into 5 groups: the minocycline-resistant K. pneumoniae strain 3 group (treated group), the group injected with FP-CATH9 (16 µg/mL) alone, the group with minocycline (16 µg/mL) alone, the group with FP-CATH9 (16 µg/mL) + minocycline (16 µg/mL), and the NS group (saline group). […]

P. aeruginosa ATCC 27853 [17] = test: Disk diffusion plate assay, inhibition zone; assay type: cell-based, Pseudomonas aeruginosa; details: MH paper + 10 µL normal saline, Fig 3A
Method: as §1, §2, §3

Molecule: C[C@@H](O)[C@H]1C(=O)N2C(C(=O)O)=C(SCCN=CN)C[C@H]12 [IPM, imipenem]
Inhibition zone (mm) Contains FP-CATH9 [1]: 9.03 ± 0.05 mm | Inhibition zone (mm) Normal saline control [1]: 9.06 ± 0.04 mm

Molecule: CNC(C)C1CCC(N)C(OC2C(N)CC(N)C(OC3OCC(C)(O)C(NC)C3O)C2O)O1 (centres unmarked) [GN, gentamicin]
Inhibition zone (mm) Contains FP-CATH9 [1]: 6 mm | Inhibition zone (mm) Normal saline control [1]: 6 mm

Molecule: KRFKKFWKK [FP-CATH9]
FP-CATH9 MIC (E. coli ATCC BW25113): >512 µg/mL | FP-CATH9 MIC [2]: >512 µg/mL | FP-CATH9 MIC [3]: >512 µg/mL | FP-CATH9 MIC [4]: >512 µg/mL | FP-CATH9 MIC [5]: >512 µg/mL | FP-CATH9 MIC [6]: >512 µg/mL | FP-CATH9 MIC [7]: >512 µg/mL | FP-CATH9 MIC [8]: >512 µg/mL | hemolysis (bovine erythrocytes): 3.97% ± 0.42% | FP-CATH9 MIC (P. aeruginosa ATCC 27853 [9]): >512 µg/mL | FP-CATH9 MIC (S. aureus ATCC 29213): >512 µg/mL | FP-CATH9 MIC [10]: >512 µg/mL | FP-CATH9 MIC (A. baumannii ATCC 19606): >512 µg/mL | FP-CATH9 MIC [11]: >512 µg/mL | FP-CATH9 MIC [12]: >512 µg/mL

Molecule: CO/N=C(\C(=O)N[C@@H]1C(=O)N2C(C(=O)O)=C(CSc3nc(=O)c(=O)[nH]n3C)CS[C@H]12)c1csc(N)n1 [CRO, ceftriaxone]
Inhibition zone (mm) Contains FP-CATH9 [1]: 6 mm | Inhibition zone (mm) Normal saline control [1]: 6 mm

Molecule: CC(C)(O/N=C(\C(=O)N[C@@H]1C(=O)N2C(C(=O)[O-])=C(C[n+]3ccccc3)CS[C@H]12)c1csc(N)n1)C(=O)O [CAZ, ceftazidime]
Inhibition zone (mm) Contains FP-CATH9 [1]: 6 mm | Inhibition zone (mm) Normal saline control [1]: 6 mm

Molecule: NCC[C@H](O)C(=O)N[C@@H]1C[C@H](N)[C@@H](O[C@H]2O[C@H](CN)[C@@H](O)[C@H](O)[C@H]2O)[C@H](O)[C@H]1O[C@H]1O[C@H](CO)[C@@H](O)[C@H](N)[C@H]1O [AK, amikacin]
Inhibition zone (mm) Contains FP-CATH9 [1]: 6 mm | Inhibition zone (mm) Normal saline control [1]: 6 mm

Molecule: Cc1cc(NS(=O)(=O)c2ccc(N)cc2)no1 [SXT, sulfamethoxazole]
Inhibition zone (mm) Contains FP-CATH9 [1]: 10.13 ± 0.12 mm | Inhibition zone (mm) Normal saline control [1]: 10.23 ± 0.17 mm

MIC ([14]; Klebsiella pneumoniae, read-out: MIC of minocycline alone): 128 µg/mL | MIC of minocycline combined with FP-CATH9 ([14]; multidrug-resistant K. pneumoniae, 5 × 10^5 CFU/mL, 37°C): 2 µg/mL
Molecule: CN(C)c1ccc(O)c2c1C[C@H]1C[C@H]3[C@H](N(C)C)C(O)=C(C(N)=O)C(=O)[C@@]3(O)C(O)=C1C2=O [minocycline]
effect on bacterial growth at 10 h (time-killing curve) [13]: no inhibitory effect | Inhibition zone, control [15]: 11 mm | Inhibition zone, control ([1]; Multidrug-resistant K. pneumoniae strain 3, MH paper + 10 µL normal saline, Fig 3C): 6 mm | protective effect [16]: little protective effect | Inhibition zone, control (P. aeruginosa ATCC 27853 [17]): 6 mm

Molecule: C[C@@H](O)[C@H]1C(=O)N2C(C(=O)O)=C(S[C@@H]3CN[C@H](C(=O)N(C)C)C3)[C@H](C)[C@H]12 [MEM, meropenem]
Inhibition zone (mm) Contains FP-CATH9 [1]: 8.1 ± 0.08 mm | Inhibition zone (mm) Normal saline control [1]: 8.16 ± 0.12 mm

Molecule: CC1(C)S[C@@H]2[C@H](NC(=O)[C@H](N)c3ccccc3)C(=O)N2[C@H]1C(=O)O [AMP, ampicillin]
Inhibition zone (mm) Contains FP-CATH9 [1]: 6 mm | Inhibition zone (mm) Normal saline control [1]: 6 mm
